Source: article PMC10779222, “Copper(II) Complexes with 1-(Isoquinolin-3-yl)heteroalkyl-2-ones: Synthesis, Structure and Evaluation of Anticancer, Antimicrobial and Antioxidant Potential” (International Journal of Molecular Sciences, 2023)
Converted amounts (≈) assume the structure as drawn.

Legend:
HepG2 (hepatoma) = test: MTT cytotoxicity assay on HepG2 cells; format: cell-based, human; conditions: MTT, 24 h incubation
Description: (§1) Cytotoxic activity of the investigated compounds was evaluated against T98G (glioblastoma), HepG2 (hepatoma), LS-180 (colon cancer) and A375 (melanoma) cell lines. Human normal skin fibroblasts, CCD-1059Sk (CRL-2072), were used as reference (non-cancerous) cells. All of the cell lines were obtained from American Type Culture Collection (ATCC; Manassas, VA, USA). A375, T98G and CCD-1059Sk cells were cultured in Dulbecco’s Modified Eagle’s Medium (DMEM) (Sigma Aldrich, St. Louis, MO, USA) supplemented with 10% FBS, penicillin (100 U/mL) and streptomycin (100 μg/mL). LS-180 and HepG2 cells were cultured in Eagle’s Minimum Essential Medium supplemented with 10% FBS, penicillin (100 U/mL) and streptomycin (100 μg/mL). All of the cells were maintained at 37 °C in a humidified atmosphere of 5% CO2. The compounds were dissolved in DMSO in order to obtain stock solutions. At the day of the experiment, the suspension of cells (1 × 10^5 cells/mL) was distributed onto 96-well plates at a volume of 100 μL/well. After attachment, the cells were treated with the increased concentrations of the tested compounds in medium containing 2% FBS and incubated for 24 h. Then, the medium was removed from wells, and cells were rinsed with PBS. Afterwards, 15 μL of MTT working solution (5 mg/mL in PBS) was added to each well, and the plates were incubated for 3 h. Subsequently, 100 μL of 10% SDS solution was added to each well in order to dissolve the precipitated formazan crystals. After overnight incubation at 37 °C, the absorbance of the obtained solution was measured at λ = 570 nm using a microplate reader (Epoch, BioTek Instruments, Inc., Winooski, VT, USA). At least two independent experiments were performed in triplicate. […] IC50 values of the investigated derivatives and positive control (etoposide) were calculated using the IC50 online calculator [101].

T98G (glioblastoma) = test: MTT cytotoxicity assay on T98G cells; format: cell-based; conditions: MTT, 24 h incubation
Description: as §1

LS-180 (colon cancer) = test: MTT cytotoxicity assay on LS-180 cells; format: cell-based, human; conditions: for IC50 ± SD, LS180: 24 h incubation
Description: as §1

[1] = system: CCD-1059Sk (human normal skin fibroblasts); test: MTT cytotoxicity assay on non-cancerous fibroblasts; format: cell-based; conditions: 24 h incubation, non-cancerous cells
Description: as §1

[2] = system: A375, HepG2, LS-180, T98G and CCD-1059Sk cell lines; test: MTT cytotoxicity assay, summary statements over several cell lines; format: cell-based
Description: as §1

[3] = system: Candida albicans ATCC 102231; test: Two-fold microdilution broth method, MIC; format: cell-based; conditions: 35 °C, 24 h
Source text: (§2) Antibacterial and antifungal activities of the free ligands L2, L3 and L4 and the corresponding copper(II) complexes C2, C3 and C4 were screened using the two-fold microdilution broth method. Minimal inhibitory concentrations (MICs) of tested compounds for the panel of reference Gram-positive bacteria, including Staphylococcus aureus ATCC 25923, Staphylococcus aureus ATCC BAA-1707, Staphylococcus epidermidis ATCC 12228, Micrococcus luteus ATCC 10240 and Bacillus cereus ATCC 10876; Gram-negative bacteria, including Salmonella Typhimurium ATCC 14028, Escherichia coli ATCC 25922, Proteus mirabilis ATCC 12453, Klebsiella pneumoniae ATCC 13883 and Pseudomonas aeruginosa ATCC 9027; and yeasts, including Candida albicans ATCC 102231, Candida parapsilosis ATCC 22019 and Candida glabrata ATCC 90030 were determined. The procedure has been described in detail before. Briefly, the solutions of tested compounds dissolved in dimethylosulfoxide (DMSO) were suspended in Mueller–Hinton broth for bacteria or Mueller–Hinton broth with 2% glucose for fungi. Then, the series of two-fold dilutions were carried out in the sterile Nunc™ MicroWell™ 96-Well Microplates (ThermoFisher Scientific Inc.), obtaining concentrations from 1000 to 7.8 mg/L in the appropriate medium. Simultaneously, the inocula of 24 h cultures of microorganisms in sterile physiological saline (0.5 McFarland standard density) were prepared and added to each well, obtaining final density of 5 × 10^5 CFU/mL for bacteria and 5 × 10^4 CFU/mL for yeasts. Proper positive (inoculum without tested compound) and negative (compound without inoculum) controls were added in each microplate. After incubation (35 °C, 24 h), the growth of microorganisms was measured spectrophotometrically at 600 nm (BioTEK ELx808, Bio-Tek Instruments, Inc., Winooski, VT, USA). MICs were marked at the lowest concentration of the compound without the growth of bacteria or fungi.

[4] = system: Candida parapsilosis ATCC 22019; test: Two-fold microdilution broth method, MIC; format: cell-based; conditions: 35 °C, 24 h
Source text: as §2

[5] = system: Candida glabrata ATCC 90030; test: Two-fold microdilution broth method, MIC; format: cell-based; conditions: 35 °C, 24 h
Source text: as §2

A375 (melanoma) = test: MTT cytotoxicity assay on A375 cells; format: cell-based, human; conditions: for IC50 ± SD, A375: 24 h incubation
Description: as §1

[6] = ABTS radical scavenging assay; conditions: ±SD; 10 min, 30 °C
Description: The ABTS radical scavenging assay of samples (ligands or complexes) was performed with ascorbic acid as a positive control. Briefly, 30 μL of different concentrations of the samples, dissolved in DMSO, was mixed with 170 μL of ABTS solution (2 mM ABTS diammonium salt, 3.5 mM potassium persulfate) and completed with water to a final volume of 300 μL. ABTS solution with DMSO was used as a control. […] ABTS inhibition was calculated according to the following equation:ABTS Inhibition (%) = [(Acontrol − Asample)/Acontrol] × 100% The radical scavenging activity of the samples was shown as the IC50 value (the concentration of the analyzed samples that caused a decrease in the non-reduced form of the ABTS radical by 50%).

[7] = DPPH radical scavenging assay; conditions: ±SD; 30 min, room temperature
Description: The DPPH radical scavenging assay of samples was performed with ascorbic acid as a positive control. Briefly, 100 μL of different concentrations of the complexes, dissolved in DMSO, was mixed with 100 μL of 0.06 mM DPPH methanolic solution and incubated at room temperature in the dark for 30 min. The change in absorbance at λ = 517 nm was analyzed with the use of a 96-well microplate reader (Epoch, BioTek System, Winooski, VT, USA). The control was composed of DPPH and DMSO. DPPH inhibition was calculated according to the following equation:DPPH Inhibition (%) = [(Acontrol − Asample)/Acontrol] × 100% The radical scavenging activity of the samples was shown as the IC50 value (the concentration of the analyzed samples that caused a decrease in the non-reduced form of the DPPH radical by 50%).

Row | SMILES | IC50 ABTS [6] [µg/mL] | IC50 ± SD, HepG2 (HepG2 (hepatoma)) [µg/mL] | IC50 ± SD, T98G (T98G (glioblastoma)) [µg/mL] | IC50 DPPH [7] [µg/mL] | IC50 ± SD, LS180 (LS-180 (colon cancer)) [µg/mL] | IC50 ± SD, CCD-1059-Sk [1] [µg/mL] | MIC, C. albicans ATCC 102231 [3] [mg/L] | MIC, C. parapsilosis ATCC 22019 [4] [mg/L] | MIC, C. glabrata ATCC 90030 [5] [mg/L] | IC50 ± SD, A375 (A375 (melanoma)) [µg/mL] | other results
1 | O=C1NCCN1c1cc2ccccc2cn1 [L2, 1-(isoquinolin-3-yl)imidazolidin-2-one] | 82.08 ± 2.77 (≈ 385 µM) |  |  |  |  |  |  |  |  |  | IC50 (HepG2 (hepatoma); Homo sapiens, HepG2, read-out: IC50 ± SD, HepG2): > 200 µg/mL; IC50 (T98G (glioblastoma); Homo sapiens, T98G, read-out: IC50 ± SD, T98G): > 200 µg/mL; melting point: 234 to 236 °C; IC50 (LS-180 (colon cancer); Homo sapiens, LS180, 24 h incubation, read-out: IC50 ± SD, LS180): > 200 µg/mL; IC50 ([1]; Homo sapiens, CCD-1059Sk, read-out: IC50 ± SD, CCD-1059-Sk): > 200 µg/mL; IC50 ([2]; Homo sapiens, all cell lines (A375, HepG2, LS-180, T98G, CCD-1059-Sk)): > 200 µg/mL; MIC ([3]; Candida albicans, ATCC102231): 500 µg/mL (≈ 2340 µM); MIC ([4]; Lodderomyces parapsilosis, ATCC22019): 1000 µg/mL (≈ 4690 µM); MIC ([5]; Nakaseomyces glabratus, ATCC90030): > 1000 µg/mL; IC50 (A375 (melanoma); Homo sapiens, A-375, 24 h incubation, read-out: IC50 ± SD, A375): > 200 µg/mL
2 | CN1CCN(c2cc3ccccc3cn2)C1=O.[Cl][Cu][Cl] [C3, Dichloro[1-(Isoquinolin-3-yl)-3-methylimidazolidin-2-one]copper(II)] | 106.19 ± 2.55 | 12.00 ± 0.36 | 10.55 ± 0.74 | 380.65 ± 2.74 | 7.09 ± 0.53 | 25.17 ± 0.85 | 1000 | 1000 | 1000 | 22.78 ± 1.14 | 
3 | CCN1CCN(c2cc3ccccc3cn2)C1=O.[Cl][Cu][Cl] [C4, Dichloro[1-ethyl-3-(isoquinolin-3-yl)imidazolidin-2-one]copper(II)] | 72.5 ± 0.97 |  | 9.27 ± 0.11 | 26.46 ± 1.04 | 5.92 ± 0.54 | 18.25 ± 1.37 | 500 | >1000 | >1000 | 37.80 ± 3.11 | IC50, HepG2, LS180 and T98G ([2]; range over HepG2, LS180 and T98G): 5.92 to 9.27 µg/mL
4 | O=C1O[C@H]([C@@H](O)CO)C(O)=C1O [Ascorbic acid, reference compound] | 20.15 ± 0.33 (≈ 114 µM) |  |  | 11.65 ± 0.54 (≈ 66.1 µM) |  |  |  |  |  |  | 
5 | O=C1CCN1c1cc2ccccc2cn1.O=C1CCN1c1cc2ccccc2cn1.[Cl][Cu][Cl] [C1, Dichloro{bis[1-(Isoquinolin-3-yl)azetidin-2-one]}copper(II)] | 112.67 ± 1.8 | 14.89 ± 0.56 | 8.25 ± 0.36 | 37.45 ± 0.66 | 11.46 ± 0.69 | 18.83 ± 0.91 |  |  |  | 37.97 ± 3.01 | IC50, HepG2 and T98G ([2]; range over HepG2 and T98G): 8.25 to 14.89 µg/mL
